Test results as given in article PMC6941952, “A homogeneous bioluminescent immunoassay to probe cellular signaling pathway regulation” (Communications Biology, 2020).
“And” between values parts separate entries of the source, which are not always exact repeats. Equal entries are not always repeated. Where a SMILES comes first, the peptide text is derived from it. The star is where a group is joined. Cbz = O=C(OCc1ccccc1)*

Assays:
total IκBα = assay: NanoBiT cell-based immunoassay, total IκBα in MCF-7 cells; set-up: species or system human; details: for Total IkB Average: background subtracted
Method: Prior to NanoBiT Cell-Based Immunoassay, 50,000 cells were seeded in 160 µl of complete growth media per well of a 96-well plate and incubated overnight. […] If necessary, the cell culture media were replaced with serum-free media after the cells were stably adherent on the plate and incubated overnight. To treat cells with activators or inhibitors, medium was changed to 30 µl of medium containing inhibitors. If activation of a specific pathway is needed, the cells were stimulated with 10 µl of medium containing activators. To lyse the cells, 10 µl of lysis buffer containing 0.1% digitonin diluted in 1X immunoassay buffer with protease and phosphatase inhibitors was added and the plates were mixed vigorously for 20 min. Then, 50 µl of an antibody mix containing two primary antibodies against the target protein and NanoBiT detecting antibodies (0.3 µl each per well), diluted in 1X immunoassay buffer was added to the lysates. The plates were incubated at 23 °C for 90 min, followed by the addition of 25 µl of Nano-Glo® reagent consisting of Nano-Glo® Luciferase Assay Substrate mixed with 1X immunoassay buffer. Luminescence was measured using a plate-reading luminometer.
Single dose or dose response inhibitor treatments were performed prior to activation of the pathways as follows. For IκBα, the cells were treated in 30 µl medium with IKK16 or MG132 for 60 min before the addition of 10 µl of DMEM containing appropriate concentration of TNFα. To measure phosphorylation of AKT or STAT3, the corresponding NanoBiT immunoassays were developed with MCF-7 or A431 cells, respectively, according the same scheme used to develop the IκBα assay using the primary antibodies for AKT and STAT3 described in the reagents section. […] Treatment with LY294002 was performed in 30 µl medium and cells were incubated for 60 min before the addition of 1 µM Insulin. To measure STAT3 phosphorylation, A431 cells were incubated overnight in DMEM medium without serum. […] After addition of the stimulators, the cells were incubated for additional times as follows. IκBα phosphorylation and degradation analyses required both time courses and single time points as described in figures. […] The NanoBiT immunoassay protocol was followed as described above.
(§1) All 96-well assay plates were read using a GloMax® 96 Microplate Luminometer from Promega. The instrument was set to 0.5 s integration time. In order to obtain net change of signal, the reagent background values (signal from the well containing all reagent except primary antibodies) were subtracted from the sample values. To plot and analyze the data, Microsoft Excel and GraphPad Prism® Software were used. IC50 values were determined by using a nonlinear regression fit to a sigmoidal dose response (variable slope).

phospho-IκBα (Ser32) = assay: NanoBiT cell-based immunoassay, phosphorylated IκBα in MCF-7 cells; set-up: species or system human; details: for P-IkB Average: background subtracted
Method: Prior to NanoBiT Cell-Based Immunoassay, 50,000 cells were seeded in 160 µl of complete growth media per well of a 96-well plate and incubated overnight. The cells were checked under microscope and it was determined that 50,000 cells per well in 96-well plate is under 90% confluency for all cells tested. If necessary, the cell culture media were replaced with serum-free media after the cells were stably adherent on the plate and incubated overnight. To treat cells with activators or inhibitors, medium was changed to 30 µl of medium containing inhibitors. If activation of a specific pathway is needed, the cells were stimulated with 10 µl of medium containing activators. To lyse the cells, 10 µl of lysis buffer containing 0.1% digitonin diluted in 1X immunoassay buffer with protease and phosphatase inhibitors was added and the plates were mixed vigorously for 20 min. Then, 50 µl of an antibody mix containing two primary antibodies against the target protein and NanoBiT detecting antibodies (0.3 µl each per well), diluted in 1X immunoassay buffer was added to the lysates. The plates were incubated at 23 °C for 90 min, followed by the addition of 25 µl of Nano-Glo® reagent consisting of Nano-Glo® Luciferase Assay Substrate mixed with 1X immunoassay buffer. Luminescence was measured using a plate-reading luminometer.
In all, 50,000 MCF-7 cells were seeded in 160 µl complete growth medium per well of a 96-well plate and incubated overnight. Half of the cells were treated with 50 ng per ml TNFα and half with vehicle. Cells were lysed as described above and a mixture of NanoBiT secondary antibodies with primary antibodies at the matrix concentrations described in Fig. 2a were added. After 90 min incubation, the Nano-Glo® reagent was added to the reactions as described above and luminescence was measured using a plate-reading luminometer.
Single dose or dose response inhibitor treatments were performed prior to activation of the pathways as follows. For IκBα, the cells were treated in 30 µl medium with IKK16 or MG132 for 60 min before the addition of 10 µl of DMEM containing appropriate concentration of TNFα. To measure phosphorylation of AKT or STAT3, the corresponding NanoBiT immunoassays were developed with MCF-7 or A431 cells, respectively, according the same scheme used to develop the IκBα assay using the primary antibodies for AKT and STAT3 described in the reagents section. For the AKT assay, MCF-7 cells were incubated overnight in phenol-red free DMEM medium (Gibco #21063-029) without serum. Treatment with LY294002 was performed in 30 µl medium and cells were incubated for 60 min before the addition of 1 µM Insulin. To measure STAT3 phosphorylation, A431 cells were incubated overnight in DMEM medium without serum. […] After addition of the stimulators, the cells were incubated for additional times as follows. IκBα phosphorylation and degradation analyses required both time courses and single time points as described in figures. […] The NanoBiT immunoassay protocol was followed as described above.
as §1

## CC(C)C[C@@H](C=O)NC(=O)[C@H](CC(C)C)NC(=O)[C@H](CC(C)C)NC(=O)OCc1ccccc1 [MG132] (Cbz-Leu-Leu-Leu-aldehyde)
Total IκBα; MCF-7 cells, 20 µM 1 h pretreatment, TNFα 50 ng per ml
  TNFα-induced degradation of IκBα: inhibited
Total IκBα; MG132, TNF 0 min
  Total IkB Raw data: 86990 and 84090 and 85790 and 87340
  Total IkB Subtract reagent background: 70533 and 70183 and 67283 and 68983
  Total IkB Average: 69245
Total IκBα; MG132, TNF 2 min
  Total IkB Raw data: 89610 and 87100 and 86710 and 88460
  Total IkB Subtract reagent background: 71653 and 72803 and 70293 and 69903
  Total IkB Average: 71163
Total IκBα; MG132, TNF 4 min
  Total IkB Raw data: 87350 and 84610 and 87580 and 85650
  Total IkB Subtract reagent background: 68843 and 70543 and 67803 and 70773
  Total IkB Average: 69490
Total IκBα; MG132, TNF 6 min
  Total IkB Raw data: 86900 and 82270 and 84580 and 89030
  Total IkB Subtract reagent background: 72223 and 70093 and 65463 and 67773
  Total IkB Average: 68888
Total IκBα; MG132, TNF 8 min
  Total IkB Raw data: 86550 and 79990 and 82380 and 88200
  Total IkB Subtract reagent background: 71393 and 69743 and 63183 and 65573
  Total IkB Average: 67473
Total IκBα; MG132, TNF 10 min
  Total IkB Raw data: 86190 and 79560 and 78070 and 90680
  Total IkB Subtract reagent background: 73873 and 69383 and 62753 and 61263
  Total IkB Average: 66818
Total IκBα; MG132, TNF 12 min
  Total IkB Raw data: 85440 and 78280 and 77940 and 85890
  Total IkB Subtract reagent background: 69083 and 68633 and 61473 and 61133
  Total IkB Average: 65080
Total IκBα; MG132, TNF 15 min
  Total IkB Raw data: 85380 and 79290 and 77150 and 87460
  Total IkB Subtract reagent background: 70653 and 68573 and 62483 and 60343
  Total IkB Average: 65513
Total IκBα; MG132, TNF 30 min
  Total IkB Raw data: 74090 and 69470 and 69970 and 74150
  Total IkB Subtract reagent background: 57343 and 57283 and 52663 and 53163
  Total IkB Average: 55113
phospho-IκBα (Ser32); MG132, TNF 0 min
  P-IkB Raw data: 22120 and 22340 and 21000 and 22420
  P-IkB Subtract reagent background: 5850 and 5550 and 5770 and 4430
  P-IkB Average: 5400
phospho-IκBα (Ser32); MG132, TNF 2 min
  P-IkB Raw data: 23520 and 22950 and 21920 and 24690
  P-IkB Subtract reagent background: 8120 and 6950 and 6380 and 5350
  P-IkB Average: 6700
phospho-IκBα (Ser32); MG132, TNF 4 min
  P-IkB Raw data: 23590 and 23010 and 22240 and 23600
  P-IkB Subtract reagent background: 7030 and 7020 and 6440 and 5670
  P-IkB Average: 6540
phospho-IκBα (Ser32); MG132, TNF 6 min
  P-IkB Raw data: 26150 and 25190 and 24160 and 26140
phospho-IκBα (Ser32); MG132, TNF 8 min
  P-IkB Raw data: 31970 and 30150 and 26560 and 32480
  P-IkB Subtract reagent background: 15910 and 15400 and 13580 and 9990
  P-IkB Average: 13720
phospho-IκBα (Ser32); MG132, TNF 10 min
  P-IkB Raw data: 38930 and 36060 and 31570 and 39590
  P-IkB Subtract reagent background: 23020 and 22360 and 19490 and 15000
  P-IkB Average: 19968
phospho-IκBα (Ser32); MG132, TNF 12 min
  P-IkB Raw data: 47120 and 43420 and 37410 and 48430
  P-IkB Subtract reagent background: 31860 and 30550 and 26850 and 20840
  P-IkB Average: 27525
phospho-IκBα (Ser32); MG132, TNF 15 min
  P-IkB Raw data: 56120 and 51230 and 43530 and 56550
  P-IkB Subtract reagent background: 39980 and 39550 and 34660 and 26960
  P-IkB Average: 35288
phospho-IκBα (Ser32); MG132, TNF 30 min
  P-IkB Raw data: 63690 and 60630 and 51570 and 63760
  P-IkB Subtract reagent background: 47190 and 47120 and 44060 and 35000
  P-IkB Average: 43343
